Patent US11339171B2, “MDM2 inhibitors” (Gan & Lee Pharmaceuticals, priority 2017, dated 2022)

Columns and labels:
[1] = tested on: human osteosarcoma cell line SJSA-1; experiment: Inhibition of proliferation of human osteosarcoma cell line SJSA-1 (DAPI staining, In Cell Analyzer); details: Homo sapiens, SJSA-1, 72 h, read-out: IC50 (nM), inhibitory activity on proliferation of human osteosarcoma cell line SJSA-1, SJSA-1, incubated 72 h
MDM2 = biological target: T1, MDM2 (Homo sapiens, UniProt Q00987); experiment: Inhibition test of MDM2-P53 (GST-MDM2, Biotin-P53, Anti-GST-Tb, SA-XL665); assay type: binding
T1 construct: made in house
T1 sequence (Q00987 whole entry): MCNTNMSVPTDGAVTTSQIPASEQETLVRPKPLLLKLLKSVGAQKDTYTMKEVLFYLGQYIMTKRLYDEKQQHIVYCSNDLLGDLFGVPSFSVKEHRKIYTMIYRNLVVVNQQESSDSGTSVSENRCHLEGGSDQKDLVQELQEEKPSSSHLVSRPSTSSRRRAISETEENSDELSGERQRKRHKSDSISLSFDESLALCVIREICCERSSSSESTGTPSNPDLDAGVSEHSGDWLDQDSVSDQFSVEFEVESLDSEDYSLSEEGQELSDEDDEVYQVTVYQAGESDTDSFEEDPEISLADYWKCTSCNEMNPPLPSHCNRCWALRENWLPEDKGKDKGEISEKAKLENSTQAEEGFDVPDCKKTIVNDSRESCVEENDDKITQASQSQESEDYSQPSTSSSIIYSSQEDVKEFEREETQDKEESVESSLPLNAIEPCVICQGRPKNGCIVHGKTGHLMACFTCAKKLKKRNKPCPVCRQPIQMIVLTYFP
Procedure, shortened: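 Compounds, serially diluted 5-fold (twelve concentrations), were shaken for 90 min at 25° C with a mix of GST-MDM2 (4 nM final), Biotin-P53, anti-GST-Tb and SA-XL665. Buffer: 1×PBS, 0.1% BSA, 5 mM DTT, 1 mM AEBSF; signal read on a microplate reader.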

SMILES | IC50 [1] | IC50 (MDM2)
Cc1ccc(Cl)cc1N1C(=O)c2nc(-c3ccccc3OC(F)(F)F)n(C(C)C)c2[C@@]12C(=O)Nc1cc(Cl)ccc12 [Example S-31, (S)-6-chloro-5′-(5-chloro-2-methylphenyl)-3′-isopropyl-2′-(2-(trifluoromethoxy)phenyl)-3′H-spiro[dihydroindole-3,4′-pyrrolo[3,4-d]imidazole]-2,6′(5′H)-dione] | 1580 nM | 60.1 nM
CCc1ccc(-c2nc3c(n2C(C)C)[C@@]2(C(=O)Nc4cc(Cl)ccc42)N(c2cc(Cl)ccc2C)C3=O)c(OC)c1 [Example S-33, (S)-6-chloro-5′-(5-chloro-2-methylphenyl)-2′-(4-ethyl-2-methoxyphenyl)-3′-isopropyl-3′H-spiro[dihydroindole-3,4′-pyrrolo[3,4-d]imidazole]-2,6′(5′H)-dione] | 9.7 nM | 2.47 nM
Cc1ccc(Cl)cc1N1C(=O)c2nc(-c3ccccc3OC(C)C)n(C(C)C)c2[C@@]12C(=O)Nc1cc(Cl)ccc12 [Example S-34, (S)-6-chloro-5′-(5-chloro-2-methylphenyl)-2′-(2-isopropoxyphenyl)-3′-isopropyl-3′H-spiro[dihydroindole-3,4′-pyrrolo[3,4-d]imidazole]-2,6′(5′H)-dione] | 619 nM | 139 nM
CCOc1ccccc1-c1nc2c(n1C(C)C)[C@@]1(C(=O)Nc3cc(Cl)ccc31)N(c1cc(Cl)ccc1C)C2=O [Example S-35, (S)-6-chloro-5′-(5-chloro-2-methylphenyl)-2′-(2-ethoxyphenyl)-3′-isopropyl-3′H-spiro[dihydroindole-3,4′-pyrrolo[3,4-d]imidazole]-2,6′(5′H)-dione] | 258 nM | 23.4 nM
CCc1ccc(OC)c(-c2nc3c(n2C(C)C)[C@@]2(C(=O)Nc4cc(Cl)ccc42)N(c2cc(Cl)ccc2C)C3=O)c1 [Example S-37, (S)-6-chloro-5′-(5-chloro-2-methylphenyl)-2′-(5-ethyl-2-methoxyphenyl)-3′-isopropyl-3′H-spiro[dihydroindole-3,4′-pyrrolo[3,4-d]imidazole]-2,6′(5′H)-dione] | 14.2 nM | 22 nM
CCc1ccc(OC)c(-c2nc3c(n2C(C)C)[C@@]2(C(=O)Nc4cc(Cl)ccc42)N(c2cccc(Cl)c2)C3=O)c1 [Example S-38, (S)-6-chloro-5′-(3-chlorophenyl)-2′-(5-ethyl-2-methoxyphenyl)-3′-isopropyl-3′H-spiro[dihydroindole-3,4′-pyrrolo[3,4-d]imidazole]-2,6′(5′H)-dione] | 14.7 nM | 12 nM
COc1ccc(-c2nc3c(n2C(C)C)[C@@]2(C(=O)Nc4cc(Cl)ccc42)N(c2cc(Cl)cn(C)c2=O)C3=O)c(OC)c1 [Example S-39, (S)-6-chloro-5′-(5-chloro-1-methyl-2-oxo-1,2-dihydropyridin-3-yl)-2′-(2,4-dimethoxyphenyl)-3′-isopropyl-3′H-spiro[dihydroindole-3,4′-pyrrolo[3,4-d]imidazole]-2,6′(5′H)-dione] | 1180 nM | 3.93 nM
COc1cc(-c2nc3c(n2C(C)C)[C@@]2(C(=O)Nc4cc(Cl)ccc42)N(c2cc(Cl)ccc2C)C3=O)c(OC)cn1 [Example S-40, (S)-6-chloro-5′-(5-chloro-2-methylphenyl)-2′-(2,5-dimethoxypyridin-4-yl)-3′-isopropyl-3′H-spiro[dihydroindole-3,4′-pyrrolo[3,4-d]imidazole]-2,6′(5′H)-dione] | 14.1 nM | 3.85 nM
COc1ncc(-c2nc3c(n2C2CCC2)[C@@]2(C(=O)Nc4cc(Cl)ccc42)N(c2cc(Cl)ccc2C)C3=O)c(OC)n1 [Example S-41, (S)-6-chloro-5′-(5-chloro-2-methylphenyl)-3′-cyclobutyl-2′-(2,4-dimethoxypyrimidin-5-yl)-3′H-spiro[dihydroindole-3,4′-pyrrolo[3,4-d]imidazole]-2,6′(5′H)-dione] | 1210 nM | 149 nM
COc1ncc(-c2nc3c(n2C(C)C)[C@@]2(C(=O)Nc4cc(Cl)ccc42)N(c2cc(Cl)cnc2C)C3=O)c(OC)n1 [Example S-42, (S)-6-chloro-5′-(5-chloro-2-methylpyridin-3-yl)-2′-(2,4-dimethoxypyrimidin-5-yl)-3′-isopropyl-3′H-spiro[dihydroindole-3,4′-pyrrolo[3,4-d]imidazole]-2,6′(5′H)-dione] | 5.6 nM | 1.51 nM
COc1ccccc1-c1nc2c(n1C(C)C)[C@@]1(C(=O)Nc3cc(Cl)ccc31)N(c1cc(Cl)cn(C)c1=O)C2=O [Example S-43, (S)-6-chloro-5′-(5-chloro-1-methyl-2-oxo-1,2-dihydropyridin-3-yl)-3′-isopropyl-2′-(2-methoxyphenyl)-3′H-spiro[dihydroindole-3,4′-pyrrolo[3,4-d]imidazole]-2,6′(5′H)-dione] | 564 nM | 3.28 nM
COc1cc(CN(C)C)ccc1-c1nc2c(n1C(C)C)[C@@]1(C(=O)Nc3cc(Cl)ccc31)N(c1cc(Cl)ccc1C)C2=O [Example S-47, (S)-6-chloro-5′-(5-chloro-2-methylphenyl)-2′-(4-((dimethylamino)methyl)-2-methoxyphenyl)-3′-isopropyl-3′H-spiro[dihydroindole-3,4′-pyrrolo[3,4-d]imidazole]-2,6′(5′H)-dione] | 14 nM | 4.16 nM
COc1cc(N)ccc1-c1nc2c(n1C(C)C)[C@@]1(C(=O)Nc3cc(Cl)ccc31)N(c1cc(Cl)ccc1C)C2=O [Example S-49, (S)-2′-(4-amino-2-methoxyphenyl)-6-chloro-5′-(5-chloro-2-methylphenyl)-3′-isopropyl-3′H-spiro[dihydroindole-3,4′-pyrrolo[3,4-d]imidazole]-2,6′(5′H)-dione] | 5.92 nM | 1.72 nM
COc1ncc(-c2cc3c(n2C(C)C)[C@@]2(C(=O)Nc4cc(Cl)ccc42)N(c2cc(Cl)ccc2C)C3=O)c(OC)n1 [Example S-50, (S)-6-chloro-5′-(5-chloro-2-methylphenyl)-2′-(2,4-dimethoxypyrimidin-5-yl)-1′-isopropyl-1′H-spiro[dihydroindole-3,6′-pyrrolo[3,4-b]pyrrole]-2,4′(5′H)-dione] | 1320 nM | 85.5 nM
COc1ncc(-c2nc3c(n2C(C)C)[C@@]2(C(=O)Nc4cc(Cl)ccc42)N(c2cc(C)cc(Cl)c2)C3=O)c(OC)n1 [Example S-51, (S)-6-chloro-5′-(3-chloro-5-methylphenyl)-2′-(2,4-dimethoxypyrimidin-5-yl)-3′-isopropyl-3′H-spiro[dihydroindole-3,4′-pyrrolo[3,4-d]imidazole]-2,6′(5′H)-dione] | 62.6 nM | 4.36 nM
COc1ccc(-c2nc3c(n2C(C)C)[C@@]2(C(=O)Nc4cc(Cl)ccc42)N(c2cc(Cl)c(=O)n(C)c2)C3=O)c(OC)c1 [Example S-52, (S)-6-chloro-5′-(5-chloro-1-methyl-6-oxo-1,6-dihydropyridin-3-yl)-2′-(2,4-dimethoxyphenyl)-3′-isopropyl-3′H-spiro[dihydroindole-3,4′-pyrrolo[3,4-d]imidazole]-2,6′(5′H)-dione] | 467 nM | 0.87 nM
COc1ccccc1-c1nc2c(n1C(C)C)[C@@]1(C(=O)Nc3cc(Cl)ccc31)N(c1cc(Cl)c(=O)n(C)c1)C2=O [Example S-53, (S)-6-chloro-5′-(5-chloro-1-methyl-6-oxo-1,6-dihydropyridin-3-yl)-3′-isopropyl-2′-(2-methoxyphenyl)-3′H-spiro[dihydroindole-3,4′-pyrrolo[3,4-d]imidazole]-2,6′(5′H)-dione] | 213 nM | 0.84 nM
CNC(=O)c1ccc(-c2nc3c(n2C(C)C)[C@@]2(C(=O)Nc4cc(Cl)ccc42)N(c2cc(Cl)ccc2C)C3=O)c(OC)c1 [Example S-54, (S)-4-(6-chloro-5′-(5-chloro-2-methylphenyl)-3′-isopropyl-2,6′-dioxo-5′,6′-dihydro-3′H-spiro[dihydroindole-3,4′-pyrrolo[3,4-d]imidazole]-2′-yl)-3-methoxy-N-methylbenzamide] | 468 nM | 2.25 nM
COc1ncc(-c2nc3c(n2C(C)C)[C@@]2(C(=O)Nc4cc(Cl)ccc42)N(c2cccc(C)c2)C3=O)c(OC)n1 [Example S-55, (S)-6-chloro-2′-(2,4-dimethoxypyrimidin-5-yl)-3′-isopropyl-5′-(m-tolyl)-3′H-spiro[dihydroindole-3,4′-pyrrolo[3,4-d]imidazole]-2,6′(5′H)-dione] | 117 nM | 4.25 nM
COc1cccc(F)c1-c1nc2c(n1C(C)C)[C@@]1(C(=O)Nc3cc(Cl)ccc31)N(c1cc(Cl)ccc1C)C2=O [Example S-57, (S)-6-chloro-5′-(5-chloro-2-methylphenyl)-2′-(2-fluoro-6-methoxyphenyl)-3′-isopropyl-3′H-spiro[dihydroindole-3,4′-pyrrolo[3,4-d]imidazole]-2,6′(5′H)-dione] | 11.8 nM | 3.04 nM
COc1cc(Cl)cc(N2C(=O)c3nc(-c4cnc(OC)nc4OC)n(C(C)C)c3[C@@]23C(=O)Nc2cc(Cl)ccc23)c1 [Example S-58, (S)-6-chloro-5′-(3-chloro-5-methoxyphenyl)-2′-(2,4-dimethoxypyrimidin-5-yl)-3′-isopropyl-3′H-spiro[dihydroindole-3,4′-pyrrolo[3,4-d]imidazole]-2,6′(5′H)-dione] | 50.8 nM | 11.4 nM
COc1ccc(C)cc1-c1nc2c(n1C(C)C)[C@@]1(C(=O)Nc3cc(Cl)ccc31)N(c1cc(Cl)ccc1C)C2=O [Example S-62, (S)-6-chloro-5′-(5-chloro-2-methylphenyl)-3′-isopropyl-2′-(2-methoxy-5-methylphenyl)-3′H-spiro[dihydroindole-3,4′-pyrrolo[3,4-d]imidazole]-2,6′(5′H)-dione] | 10.5 nM | 1.61 nM
